# Measured values from US9351963B2, “Defensin-like molecules as novel antimicrobial agents” (UNIVERSITY OF MARYLAND, BALTIMORE, priority 2010, dated 2016).
# Key:
# [1] = system: S. aureus ATCC 29213; assay: Murine peritoneal sepsis model; format: in vivo, C57BL/6J mice; conditions: 5 mg/kg intraperitoneally, preliminary experiments (not shown)
# [2] = NMR interaction with Lipid II; format: binding; conditions: 0.15 mM Lipid II + 0.15 mM compound, d6-DMSO, 25° C.
# Method: The NMR samples included 0.15 mM Lipid II, 0.15 mM BAS00127538 compound, or 0.15 mM Lipid II+0.15 mM BAS00127538 compound. All samples were dissolved in 90% double distilled H20+10% DMSO, incubated for 30 minutes, freeze-dried, and then dissolved in 300 uL of d6-DMSO. NMR experiments were carried out at 25° C. on an 800 MHz Bruker Avance NMR spectrometer (800.27 MHz for protons) equipped with a pulse-field gradient unit, four frequency channels, and a triple resonance TXI cryoprobe (Bruker Biospin, Billerica, Mass.). 1D proton experiments were collected to probe for chemical shift changes and 2D TOCSY (30, 60, and 90 msec spinlock times), 2D NOESY (150 and 300 msec mixing times), and natural abundance ^13C-HSQC experiments were collected to determine proton and carbon chemical shift assignments.
# To confirm the binding of defensins mimetic BAS00127538 to Lipid II the inventors observed by SPR, their interaction was studied directly by NMR (FIG. 7). Specifically, the inventors used 1D proton NMR spectra to determine if any chemical shift changes occur when the compound was added to 3-Lipid II. […] This Figure depicts an analysis of 2D TOCSY spectra collected at 800 MHz of the aromatic region of compound BAS00127538 alone (black) overlaid with spectra of compound bound to Lipid II (red). […]
smiles,measurement,setting,value
"CN1/C(=C/C=C/c2cc(-c3ccccc3)cc(-c3ccccc3)[o+]2)C(C)(C)c2ccccc21 [BAS00127538, 2,4-diphenyl-6-[(1E)-3-[(2E)-1,3,3-trimethyl-2,3-dihydro-1H-indol-2-ylidene]prop-1-en-1-yl]-1$1^4-pyran-1-ylium]",Clearing non-lethal doses of S. aureus 29213,[1],most efficacious
same,Interaction with Lipid II by NMR analysis,[2],found to interact
